Data reported in PubChem BioAssay (NCI).
Values joined by “and” are separate entries in the source; they are usually repeats but may differ in a detail not shown here. Equal entries are not always repeated.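 Values below derive from 48-hour exposures of cells grown in 96-well plates, with endpoints linearly interpolated between the two concentrations bracketing the appropriate inhibition level. Here, GI50 denotes the concentration required for 50% inhibition of growth. TGI denotes the concentration required for complete inhibition of growth.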

What was measured:
Assay in all cases: DTP human tumour cell line panel, 48 h
[1] = test system: NCI-H226 lung
[2] = test system: SF-539 CNS
[3] = test system: HOP-62 NSCLC
[4] = test system: HL-60(TB) leukemia
[5] = test system: NCI-H23 lung
[6] = test system: MALME-3M melanoma
[7] = test system: UO-31 renal
[8] = test system: 786-0 renal
[9] = test system: ACHN renal
[10] = test system: IGROV1 ovarian

| Compound | GI50 [1] [µM] | TGI [1] [µM] | GI50 [2] [µM] | TGI [2] [µM] | GI50 [3] [µM] | TGI [3] [µM] | GI50 [4] [µM] | TGI [4] | GI50 [5] [µM] | TGI [5] [µM] | GI50 [6] [µM] | TGI [6] [µM] | GI50 [7] [µM] | TGI [7] [µM] | GI50 [8] [µM] | TGI [8] [µM] | GI50 [9] [µM] | TGI [9] [µM] | GI50 [10] [µM] | TGI [10] [µM] |
| --- | --- | --- | --- | --- | --- | --- | --- | --- | --- | --- | --- | --- | --- | --- | --- | --- | --- | --- | --- | --- |
| COc1ccc(-c2oc3ncnc(N)c3c2-c2ccc(NC(=O)Nc3cc(C(F)(F)F)ccc3F)cc2)cc1 | 0.601 | 8.36 | 1.55 | 5.41 | 0.953 | 3.38 | 2.58 | 9.31 µM | 0.823 | 3.26 | 1.81 | 6.22 | 0.706 | 5.01 | 1.45 | 5.49 | 0.95 | 7.89 | 0.995 | 5.82 |
| Cn1c(=O)nc2n(-c3ccc(F)c(F)c3)c3ccccc3nc-2c1=O | – | > 100 | – | > 100 | – | > 100 | – | 34.9 µM | – | 29.9 | – | 24.3 | – | > 100 | – | > 100 | – | 37.2 | – | 41.4 |
| O=c1oc2ccc(F)cc2c(=O)n1-c1ccc(I)cc1F | 0.472 | 4.5 | 0.42 | 5.17 | 0.916 | 14.9 | 0.366 | 1.83 µM | 0.311 | 1.59 | 0.305 | 1.17 | 0.241 | 1.46 | 1.67 | 8.1 | 0.43 | 7.39 | 0.397 | 15.6 |
| C#Cc1cccc(Nc2nc(C)nc3cc(NC(=O)CCl)ccc23)c1 | 3.06 | 8.25 | 3.34 | 6.6 | 3.65 | 7.85 | 2.63 | 7.67 µM | 2.35 | 7.03 | 0.465 | 1.11 | 3.24 | 6.74 | 0.461 | 1.03 | 2.98 | 6.67 | 0.533 | 1.37 |
| CCCC[C@H](CCc1ccccc1)N(C(=O)OC)N1CCC[C@H]1COC | – | 36.2 | – | 33 | – | 40.4 | – | > 100 µM | – | 32 | – | 32.1 | – | 35.4 | – | 45.2 | – | 30.4 | – | 56.8 |
| COC(=O)C(/C(=N/N)C(=O)Nc1cc(Cl)ccc1Cl)c1nc2ccc([N+](=O)[O-])cc2[nH]c1=O (stereo unspecified) | – | > 100 | – | > 100 | – | > 100 | – | > 100 µM | – | > 100 | – | > 100 | – | > 100 | – | > 100 | – | > 100 | – | > 100 |
| Cc1ccc(NC(=O)C(=O)C2C(=O)NC(=O)NC2=O)c(C)c1 | – | 37.8 | – | > 100 | – | > 100 | – | > 100 µM | – | > 100 | – | > 100 | – | > 100 | – | > 100 | – | > 100 | – | > 100 |
| NC1=C(O)/C(=N/NS(=O)(=O)c2ccccc2)C(c2ccc3c(c2)OCO3)O1 (stereo unspecified) | – | > 100 | – | > 100 | – | > 100 | – | > 100 µM | – | > 100 | – | > 100 | – | > 100 | – | > 100 | – | > 100 | – | > 100 |
| CC(=O)N(N=O)c1ccc(N(N=O)C(C)=O)cc1 | – | > 100 | – | > 100 | – | > 100 | – | > 100 µM | – | > 100 | – | > 100 | – | > 100 | – | > 100 | – | > 100 | – | > 100 |
| CCCCCCCCCCCCCCCCCC1=NC(C)(C)CN1C(C)(C)CO | 2.14 | 4.06 | 1.59 | 3.14 | 1.72 | 3.19 | 1.15 | 4.07 µM | 1.52 | 2.99 | 1.94 | 4.22 | 1.42 | 3.43 | 1.45 | 2.89 | 1.53 | 3.05 | 1.08 | 2.6 |
| COc1ccc(Cc2ccc3[nH]c(=O)cc(C)c3c2)cc1S(=O)(=O)O | – | > 100 | – | > 100 | – | > 100 | – | > 100 µM | – | > 100 | – | > 100 | – | > 100 | – | > 100 | – | > 100 | – | > 100 |
| O=C(O)c1nn(-c2ccc(Cl)cc2)c2c1C(=O)c1ccccc1C2=O | – | > 100 | – | 67.4 | – | > 100 | – | > 100 µM | – | > 100 | – | 28.1 | – | > 100 | – | > 100 | – | > 100 | – | > 100 |
| CC(C)(C)c1cc[n+](C[n+]2ccc(C(C)(C)C)cc2)cc1 | – | > 100 | – | > 100 | – | > 100 | – | > 100 µM | – | > 100 | – | > 100 | – | > 100 | – | > 100 | – | > 100 | – | > 100 |
| CC1(C)N=C(N)N=C(N)N1c1cccc(CCCCc2ccc(Cl)c(S(=O)(=O)F)c2)c1 | 8.38 | 28.5 | 0.504 | 13 | 6.34 | 21.2 | 0.563 | 12.1 µM | 2.83 | 18.1 | 9.71 | 28.3 | > 100 | > 100 | 2.67 | 16.3 | 20.9 | > 100 | 0.66 | 18.8 |
| CN1C(c2ccccc2)CC(=NO)CC1c1ccccc1 (stereo unspecified) | – | > 100 | – | > 100 | – | > 100 | 22 | 40.7 µM and 68 µM | – | > 100 | – | > 100 | – | > 100 | 95.7 | > 100 | – | > 100 | – | > 100 |
| CCCCNC(=O)Oc1ccc(/C(=C(\C)c2ccc(OC)cc2)c2ccc(OCCN3CCCCC3)cc2)cc1 | 7.77 | 27.9 | 1.64 | 3.12 | 3.15 | 10.7 | 1.53 | 3.58 µM | 4.06 | 21.4 | 1.74 | 3.31 | 1.71 | 4.01 | 1.47 | 2.83 | 3.12 | 10.7 | 2.6 | 6.46 |
| FC(F)(F)c1cccc(Oc2ccc(Nc3ncnc4ccc(OCCCN5CCOCC5)cc34)cc2Cl)c1 | 15 | 41 | 1.86 | 3.33 | 2.33 | 5.18 | 2.03 | 4.88 µM | 3.19 | 13.4 | 1.6 | 3.07 | 1.19 | 2.5 | 1.51 | 3.11 | 1.62 | 11.1 | 1.01 | 3.16 |
| CC(C)(C)OC(=O)NC(Cc1ccccc1)C(=S)N1CCCC1 (stereo unspecified) | – | > 100 | – | > 100 | – | 91 | – | > 100 µM | – | > 100 | – | > 100 | – | > 100 | – | > 100 | – | > 100 | – | > 100 |
| COc1nc(NC2OC(COC(C)=O)C(OC(C)=O)C(OC(C)=O)C2OC(C)=O)c(N=C(C)C(C)=O)c(=O)n1C (stereo unspecified) | – | > 100 | – | > 100 | – | > 100 | – | > 100 µM | – | > 100 | – | > 100 | – | > 100 | – | > 100 | – | > 100 | – | > 100 |
| Oc1cccc2ccc(SSc3ccc4cccc(O)c4n3)nc12 | – | > 100 | – | 37.5 | – | 39.9 | – | 56.7 µM | – | 31.2 | – | 30 | – | 83.9 | – | 40.4 | – | 29.7 | – | 60.8 |
| COC(=O)[C@@H](C)C[C@H](Cc1ccc(F)cc1)NC(=O)c1csc([C@@H](C[C@H](C(C)C)N(C)C(=O)[C@@H](NC(=O)[C@H]2CCCCN2C)C2CC2)OC(C)=O)n1 | 1.26 | > 13.9 | 0.408 | 1.49 | 0.559 | > 25 | 0.054 | – | 1.14 | > 25 | 0.569 | > 25 | 1.91 | > 25 | 0.831 | > 25 | 1.98 | > 25 | 0.34 | > 25 |
| Cc1ccc(NC(=O)CCc2nnc3s/c(=C\C=C\c4ccccc4)c(=O)n23)cc1 | – | > 100 | – | > 100 | – | > 100 | – | > 79.7 µM | – | > 100 | – | > 100 | – | > 100 | – | > 100 | – | > 100 | – | > 100 |
| COc1nc2c(c(=O)n1C)CN(c1ccccc1)C(=O)CN2C | 83.8 | > 100 | > 100 | > 100 | > 100 | > 100 | 49.8 | > 100 µM | 95.1 | > 100 | 46.7 | > 100 | 5.73 | > 100 | > 100 | > 100 | 49.9 | > 100 | 4.33 | > 100 |
| COc1ccc2c(c1)/C(=C\c1c(-c3ccccc3)nc3sccn13)C(=O)N2 | 3.44 | 33.7 | 8.23 | 20.5 | 2.42 | 14.9 | 5.09 | > 35.6 µM | 1.97 | 6.85 | 39.7 | 97.1 | 7.29 | > 43.7 | 9.01 | 31.2 | 1.23 | 14.7 | 13.9 | 52.3 |
| OCC1CC2C=CCC(C2)C1 (stereo unspecified) | – | > 100 | – | > 100 | – | > 100 | – | > 100 µM | – | > 100 | – | > 100 | – | > 100 | – | > 100 | – | > 100 | – | > 100 |
| CCOC(=O)NC(=O)c1cn(C2CCCCC2)c(=O)n(C)c1=O | – | > 100 | – | > 100 | – | > 100 | – | > 100 µM | – | > 100 | – | > 100 | – | > 100 | – | > 100 | – | > 100 | – | > 100 |
| C[N+]1(CCNP(=S)(NCC[N+]2(C)Cc3c(ccc4c3OCO4)C3C2c2cc4c(cc2C[C@@H]3O)OCO4)NCC[N+]2(C)Cc3c(ccc4c3OCO4)C3C2c2cc4c(cc2C[C@@H]3O)OCO4)Cc2c(ccc3c2OCO3)C2C1c1cc3c(cc1C[C@H]2O)OCO3 (stereo partly specified) | – | 79.6 | 1.99 | – | 7.52 | – | 1.02 | – | 2.25 | – | 2.09 | – | 4.3 | – | 5.22 | – | 4.16 | – | 4.9 | – |
| CO[C@H]1/C=C/O[C@@]2(C)Oc3c(C)c(O)c4c(O)c(c(/C=N/N5C(C)CN(Cc6ccc(C#N)cc6)CC5C)c(O)c4c3C2=O)NC(=O)/C(C)=C\C=C\[C@H](C)[C@H](O)[C@@H](C)[C@@H](O)[C@@H](C)[C@H](OC(C)=O)[C@@H]1C (stereo partly specified) | 6.06 | 12.9 | 6.22 | 13 | 9.76 | 20.6 | 7.19 | 18.6 µM | 9.67 | 30.7 | 8.56 | 20.5 | 3.64 | 10.5 | 8.79 | 16.8 | 7.89 | 16.2 | 7.61 | 16.4 |
| CCCC(=O)Oc1ccc(/C=N/NC(N)=S)nc1 | – | > 100 | – | > 100 | – | > 100 | – | > 100 µM | – | > 100 | – | > 100 | – | > 100 | – | > 100 | – | > 100 | – | > 100 |
| CC[C@H](C)[C@H](NC(=O)c1ncccn1)C(=O)N(C)[C@H](C[C@@H](OC(C)=O)c1nc(C(=O)N[C@@H](Cc2ccccc2)C[C@H](C)C(=O)OC)cs1)C(C)C | 5.45 | > 25 | 2.53 | 11.9 | 1.73 | > 25 | 0.588 | 1.26 µM | 5.4 | > 25 | 1.29 | > 25 | 6.01 | > 25 | 1.72 | > 25 | 4.07 | > 25 | 1.38 | > 25 |
